From patent US8426406B2, “Glucocorticoid receptor agonist comprising 2,2,4-trimethyl-6-phenyl-1,2-dihydroquinoline derivatives having substituted oxy group” (Santen Pharmaceutical Co., Ltd., priority 2008, dated 2013)

Each compound was assayed on IL-6 production induced by lipopolysaccharide (LPS) in human corneal epithelial cells (assay: Evaluation test for GR agonist activity: inhibition of LPS-induced IL-6 production in human corneal epithelial cells (HCE-T)). Conditions: Corneal epithelial cell, 10 μL of 100 μM test compound solution per well, 4 hours incubation, efficacy relative to DEX.
Format: cell-based
Description: In order to evaluate a GR agonist activity of the present compound, the inhibitory effects on the IL-6 production induced by lipopolysaccharide (LPS) in human corneal epithelial cells. IL-6 levels in the conditioned medium were measured using the HTRF human IL-6 Kit (boehringer-Ingelheim, Cat No. 62IL6PEB), and the procedure was carried out according to the protocol attached to the kit. Hereinafter, the specific method will be described.
LPS solution: After LPS was dissolved in phosphate buffer solution (hereinafter referred to as PBS(−)), the resulting solution was diluted with 10% FBS-DMEM/F12 medium, whereby a 1 μg/mL LPS solution was prepared.
After a test compound was dissolved in dimethylsulfoxide (hereinafter referred to as DMSO), the resulting solution was diluted with 10% FBS-DMEM/F12 medium, whereby a 100 μM test compound solution was prepared. A 100 μM DEX solution was prepared by the same method, and the inhibitory ratio of IL-6 production of DEX was evaluated to use for calculating efficacy (% DEX).
Used cell: SV40-immortalized human corneal epithelial cells (HCE-T) (RIKEN)
1) HCE-T cells were harvested, and seeded at 2.0×10^4 cells/0.1 mL/well in a 96-well plate.
2) After incubation overnight, the medium was removed and a 80 μL of new 10% FBS-DMEM/Ham's F12 medium was added into each well.
3) A 10 μL of test compounds solution was added into each well.
4) A 10 μL of LPS solution was added into each well.
5) As a negative control, a 10 μL of 10% FBS-DMEM/Ham's F12 medium was added into each well instead of a test compound solution and a LPS solution.
6) As a positive control, a 10 μL of 10% FBS-DMEM/Ham's F12 medium containing 1% DMSO was added into each well instead of a test compound solution.
7) After 4 hours incubation, supernatants were collected and IL-6 levels in the supernatants were quantitated using the HTRF human IL-6 Kit.
8) The inhibition ratio of IL-6 production (%) was calculated according to the following equation.
The inhibition ratio of IL-6 production (%) was calculated according to the following equation. The inhibition ratio of IL-6 production(%)=100×[1−(IL-6 level in each group−mean value of IL-6 level in negative control)/(mean value of IL-6 level in positive control−mean value of IL-6 level in negative control)](%)
Furthermore, the inhibition ratio of IL-6 production (efficacy (% DEX)) was also calculated according to the following equation. Efficacy(% DEX)=100×{(mean value of IL-6 inhibition in compound-treated group)/(mean value of IL-6 inhibition in DEX-treated group)}(%) (Result and Discussion)
CCCS(=O)(=O)Oc1ccc(-c2ccc3c(c2COc2cc(F)ccc2C)C(C)=CC(C)(C)N3)c(OC)c1 [Compound 4-3, 5-(5-Fluoro-2-methylphenoxymethyl)-6-(2-methoxy-4-propylsulfonyloxyphenyl)-2,2,4-trimethyl-1,2-dihydroquinoline] showed an Emax of 81%.
For COc1cc(OC(=O)Nc2ccc(Cl)cc2)ccc1-c1ccc2c(c1COC(=O)c1ccc(C)s1)C(C)=CC(C)(C)N2 [Compound 6-27, 6-[4-(4-Chlorophenylaminocarbonyloxy)-2-methoxyphenyl]-5-(5-methylthiophen-2-ylcarbonyloxymethyl)-2,2,4-trimethyl-1,2-dihydroquinoline], the Emax was 94%.
Compound COc1cc(OC(=O)c2ccc(C)o2)ccc1-c1ccc2c(c1COc1cc(F)ccc1C)C(C)=CC(C)(C)N2 [Compound 1-48, 5-(5-Fluoro-2-methylphenoxymethyl)-6-[2-methoxy-4-(5-methylfuran-2-ylcarbonyloxy)phenyl]-2,2,4-trimethyl-1,2-dihydroquinoline] has an Emax of 73%.
Compound COc1cc(OC(=O)c2cccnc2)ccc1-c1ccc2c(c1COC(=O)c1ccc(C)cc1)C(C)=CC(C)(C)N2 [Compound 1-133, 5-(4-Methylbenzoyloxymethyl)-6-[2-methoxy-4-(pyridin-3-ylcarbonyloxy)phenyl]-2,2,4-trimethyl-1,2-dihydroquinoline] has an Emax of 74%.
COc1cc(OC(=O)c2ccnc(Cl)c2)ccc1-c1ccc2c(c1COc1cc(F)ccc1C)C(C)=CC(C)(C)N2 [Compound 1-68, 6-[4-(2-Chloropyridin-4-ylcarbonyloxy)-2-methoxyphenyl]-5-(5-fluoro-2-methylphenoxymethyl)-2,2,4-trimethyl-1,2-dihydroquinoline] gave an Emax of 72%.
COc1ccccc1NCc1c(-c2ccc(OC(=O)c3ccc(F)cc3)cc2OC)ccc2c1C(C)=CC(C)(C)N2 [Compound 1-110, 6-[4-(4-Fluorobenzoyloxy)-2-methoxyphenyl]-5-(2-methoxyphenylaminomethyl)-2,2,4-trimethyl-1,2-dihydroquinoline] was tested, and the Emax was 83%.
With COc1cc(OC(=O)c2ccc(C)nc2)ccc1-c1ccc2c(c1COC(=O)c1ccc(C)s1)C(C)=CC(C)(C)N2 [Compound 1-128, 6-[2-Methoxy-4-(6-methylpyridin-3-ylcarbonyloxy)phenyl]-5-(5-methylthiophen-2-ylcarbonyloxymethyl)-2,2,4-trimethyl-1,2-dihydroquinoline] the Emax was 79%.
Work on COc1cc(OS(=O)(=O)C(C)C)ccc1-c1ccc2c(c1COC(=O)c1ccc(C)s1)C(C)=CC(C)(C)N2 [Compound 4-29, 6-(4-Isopropylsulfonyloxy-2-methoxyphenyl)-5-(5-methylthiophen-2-ylcarbonyloxymethyl)-2,2,4-trimethyl-1,2-dihydroquinoline] yielded an Emax of 92%.
COc1cc(OC(=O)c2ccco2)ccc1-c1ccc2c(c1COC(=O)c1ccc(Br)s1)C(C)=CC(C)(C)N2 [Compound 1-162, 5-(5-Bromothiophen-2-ylcarbonyloxymethyl)-6-[4-(furan-2-ylcarbonyloxy)-2-methoxyphenyl]-2,2,4-trimethyl-1,2-dihydroquinoline] was tested, and the Emax was 81%.
Compound COC(=O)c1cccc(C(=O)Oc2ccc(-c3ccc4c(c3COc3cc(F)ccc3C)C(C)=CC(C)(C)N4)c(OC)c2)c1 [Compound 1-54, 5-(5-Fluoro-2-methylphenoxymethyl)-6-[2-methoxy-4-(3-methoxycarbonylbenzoyloxy)phenyl]-2,2,4-trimethyl-1,2-dihydroquinoline] has an Emax of 75%.
Work on COc1ccccc1NCc1c(-c2ccc(OS(C)(=O)=O)cc2OC)ccc2c1C(C)=CC(C)(C)N2 [Compound 4-20, 6-(2-Methoxy-4-methylsulfonyloxyphenyl)-5-(2-methoxyphenylaminomethyl)-2,2,4-trimethyl-1,2-dihydroquinoline] yielded an Emax of 75%.
Work on COc1ccccc1NCc1c(-c2ccc(OC(=O)c3ccccc3F)cc2OC)ccc2c1C(C)=CC(C)(C)N2 [Compound 1-101, 6-[4-(2-Fluorobenzoyloxy)-2-methoxyphenyl]-5-(2-methoxyphenylaminomethyl)-2,2,4-trimethyl-1,2-dihydroquinoline] yielded an Emax of 81%.
With CCN(CCN(C)C)C(=O)Oc1ccc(-c2ccc3c(c2COc2cc(F)ccc2C)C(C)=CC(C)(C)N3)c(OC)c1 [Compound 6-20, 6-[4-[N-(2-Dimethylaminoethyl)-N-ethylaminocarbonyloxy]-2-methoxyphenyl]-5-(5-fluoro-2-methylphenoxymethyl)-2,2,4-trimethyl-1,2-dihydroquinoline] the Emax was 79%.
CCS(=O)(=O)Oc1ccc(-c2ccc3c(c2COc2cc(F)ccc2C)C(C)=CC(C)(C)N3)c(OC)c1 [Compound 4-4, 6-(4-Ethylsulfonyloxy-2-methoxyphenyl)-5-(5-fluoro-2-methylphenoxymethyl)-2,2,4-trimethyl-1,2-dihydroquinoline] gave an Emax of 89%.
With COc1cc(OC(=O)N(C)C)ccc1-c1ccc2c(c1COc1cc([N+](=O)[O-])ccc1C)C(C)=CC(C)(C)N2 [Compound 6-33, 6-(4-Dimethylaminocarbonyloxy-2-methoxyphenyl)-5-(2-methyl-5-nitrophenoxymethyl)-2,2,4-trimethyl-1,2-dihydroquinoline] the Emax was 78%.
Compound COc1cc(OC(=O)c2occc2C)ccc1-c1ccc2c(c1COC(=O)c1ccc(C)s1)C(C)=CC(C)(C)N2 [Compound 1-171, 6-[2-Methoxy-4-(3-methylfuran-2-ylcarbonyloxy)phenyl]-5-(5-methylthiophen-2-ylcarbonyloxymethyl)-2,2,4-trimethyl-1,2-dihydroquinoline] has an Emax of 87%.
For COc1cc(OC(=O)c2cccnc2OC)ccc1-c1ccc2c(c1CNc1cc(F)ccc1C)C(C)=CC(C)(C)N2 [Compound 1-125, 5-(5-Fluoro-2-methylphenylaminomethyl)-6-[2-methoxy-4-(2-methoxypyridin-3-ylcarbonyloxy)phenyl]-2,2,4-trimethyl-1,2-dihydroquinoline], the Emax was 81%.
Compound COc1cc(OC(=O)c2cscn2)ccc1-c1ccc2c(c1COc1cc(F)ccc1C)C(C)=CC(C)(C)N2 [Compound 1-40, 5-(5-Fluoro-2-methylphenoxymethyl)-6-[2-methoxy-4-(thiazol-4-ylcarbonyloxy)phenyl]-2,2,4-trimethyl-1,2-dihydroquinoline] has an Emax of 75%.
For CCCS(=O)(=O)Oc1ccc(-c2ccc3c(c2COC(=O)c2ccc(C)s2)C(C)=CC(C)(C)N3)c(OC)c1 [Compound 4-27, 6-(2-Methoxy-4-propylsulfonyloxyphenyl)-5-(5-methylthiophen-2-ylcarbonyloxymethyl)-2,2,4-trimethyl-1,2-dihydroquinoline], the Emax was 101%.
For CCCS(=O)(=O)Oc1ccc(-c2ccc3c(c2COc2cc([N+](=O)[O-])ccc2C)C(C)=CC(C)(C)N3)c(OC)c1 [Compound 4-12, 6-(2-Methoxy-4-propylsulfonyloxyphenyl)-5-(2-methyl-5-nitrophenoxymethyl)-2,2,4-trimethyl-1,2-dihydroquinoline], the Emax was 77%.
In the case of COc1cc(OS(=O)(=O)C2CCCC2)ccc1-c1ccc2c(c1COC(=O)c1ccc(C)s1)C(C)=CC(C)(C)N2 [Compound 4-30, 6-(4-Cyclopentylsulfonyloxy-2-methoxyphenyl)-5-(5-methylthiophen-2-ylcarbonyloxymethyl)-2,2,4-trimethyl-1,2-dihydroquinoline], the Emax was 93%.
Compound COc1cc(OC(=O)c2ccc(F)cc2)ccc1-c1ccc2c(c1COC(=O)c1ccc(C)s1)C(C)=CC(C)(C)N2 [Compound 1-169, 6-[4-(4-Fluorobenzoyloxy)-2-methoxyphenyl]-5-(5-methylthiophen-2-ylcarbonyloxymethyl)-2,2,4-trimethyl-1,2-dihydroquinoline] has an Emax of 78%.
In the case of COc1cc(OC(=O)c2ccccc2SC)ccc1-c1ccc2c(c1COC(=O)c1ccc(C)s1)C(C)=CC(C)(C)N2 [Compound 1-151], the Emax was 90%.
COc1cc(OC(=O)c2ccccc2F)ccc1-c1ccc2c(c1COC(=O)c1ccc(C)s1)C(C)=CC(C)(C)N2 [Compound 1-144, 6-[4-(2-Fluorobenzoyloxy)-2-methoxyphenyl]-5-(5-methylthiophen-2-ylcarbonyloxymethyl)-2,2,4-trimethyl-1,2-dihydroquinoline] gave an Emax of 94%.
For COc1cc(OC(=O)c2ccsc2)ccc1-c1ccc2c(c1COC(=O)c1ccc(C)s1)C(C)=CC(C)(C)N2 [Compound 1-147, 6-[2-Methoxy-4-(thiophen-3-ylcarbonyloxy)phenyl]-5-(5-methylthiophen-2-ylcarbonyloxymethyl)-2,2,4-trimethyl-1,2-dihydroquinoline], the Emax was 80%.
